Source: US12590118B2, “Salt and crystal form of steroid derivative regulator” (Shanghai Hansoh Biomedical Co., Ltd., priority 2019, dated 2026)
In brackets after ≈: the same amount, converted by molar mass.

Key:
[1] = Hygroscopicity experiment (DVS); assay type: physicochemical
Experimental: The hygroscopicity of crystal forms I, II and III of the free base of Example 40 under different relative humidity conditions was investigated, so as to provide a basis for screening of the crystal form and salt of the compound, production and storage.
10 to 15 mg of the free base of Example 40 was placed in the sample chamber of DVS. DVS was carried out, and the vapour sorption weight gain percentage of the compound at 80% RH was recorded at the same time.

[2] = Solubility experiment (thermodynamic solubility at 37° C.); assay type: physicochemical; conditions: for solubility at 24 h: 37 °C, thermodynamic from solid
Experimental: The solubility of the free base and salt of the compound in water, Fasted State Simulated Gastric Fluid (FaSGF), Fasted State Simulated Intestinal Fluid (FaSSIF) and Fed State Simulated Intestinal Fluid (FeSSIF) was compared, so as to provide a basis for evaluating the druggability of the crystal form and salt.
About 2 to 3 mg of crystal forms I, II and III of the free base of Example 40 were weighed, suspended in 1 mL of Fasted State Simulated Gastric Fluid (FaSSGF), Fasted State Simulated Intestinal Fluid (FaSSIF), Fed State Simulated Intestinal Fluid (FeSSIF) and pure water respectively, and shaked for 24 hours. Thermodynamic solubility of the compound at 37° C. was determined using HPLC by external standard method.

CD-1 mice = test: PTZ-induced epilepsy model in mice; assay type: in vivo; conditions: 3 mpk p.o., PTZ 120 mg/kg s.c., 30 min observation
Experimental: The PTZ-induced epilepsy model in CD-1 mice was established, and the antiepileptic effect of the compounds of Example 2, Example 40, Example 41 and Example 52 was evaluated using this model.
50 male CD-1 mice were purchased from Beijing Vital River Laboratory Animal Technology Co. Ltd. The test animals were adapted at the animal room in the third building of Shanghai ChemPartner Co., Ltd for 7 days before the experiment. The average body weight of the animals on the test day was 32.2±0.2 grams. Feeding environment: 5 animals/cage, room temperature 23±2° C., 12/12 hours of light and dark cycle, free access to food and water.
The mice were randomly grouped for the experiment on the test day.
Compounds of Example 2, Example 40, Example 41 and Example 52 (prepared by the applicant). The test compounds were stored in a refrigerator at 4° C.
4.2.3 Test Equipments • 1 ml sterile disposable syringe with needle (purchased from Zhejiang Kangdelai Medical Devices Co., Ltd.) • Pipette: Eppendorf Research Plus (100-1000 μL) • Vortex mixer: Kylin-Bell Vortex 5 • Ultrasonic instrument: JL-360 ultrasonic cleaner • Balance: METTLER TOLEDO XS204 precision balance • Balance: METTLER TOLEDO XS6002S electronic balance • Plexiglass box: 25 cm length*15 cm width*15 cm height with one opaque side wall, custom made by Suzhou Fengshi Laboratory Animal Equipment Co., Ltd • 3-channel timer: Oregon/Model NO. WB-388. 4.2.4 Test Animal Grouping • 1) Vehicle/PTZ: 0.5% CMC-Na+1% Tween-80 (10 ml/kg, p.o.), administered 0.5 hr before the PTZ administration; PTZ ([…], s.c.), administered before the experiment; • 2) 3 mg/kg of the compounds of Examples/PTZ: the compounds of Example 2, Example 40, Example 41 and Example 52 (3 mg/kg, 10 ml/kg, p.o.), administered 0.5 hr before the PTZ administration; PTZ ([…], s.c.), administered before the experiment. 4.3 Experimental Procedures 4.3.1 Solvent Formulation • 1) 0.5% CMC-Na+1% Tween-80 (administration volume: 10 mL/kg):
1 g of sodium carboxymethyl cellulose was precisely weighed and added to a 250 mL solvent bottle, then 150 mL of double-distilled water was added. The mixture was stirred at room temperature for 4 hours with a magnetic stirrer to obtain a uniform and clear solution. 2 mL of Tween-80 was slowly added, and the mixture was stirred at room temperature for 3 hours to obtain a uniform and clear solution. The solution was slowly transferred to a 200 mL volumetric flask, and double distilled water was added to the constant volume of 200 mL. The solution was transferred to a 250 mL solvent bottle, and stirred for 1 hour with a magnetic stirrer to obtain a uniform and clear solution. • 2) 30% hydroxypropyl-p-cyclodextrin:
248 mg of PTZ was precisely weighed and added to a 40 mL brown flask, then 20.667 mL of physiological saline was added. The mixture was mixed by vortex for 2 minutes, and treated by ultrasound at room temperature for 2 minutes to obtain a uniform and clear solution (concentration: 12 mg/mL). • 2) 0.3 mg/mL of the compounds of Example 5 or Example 23 (dose: 3 mg/kg; administration volume: 10 mL/kg): […]
4.4 Adaptation to the Environment
The mice were randomly grouped, marked and weighed; 10 mice per group. The test compound was administered orally at an administration volume of 10 mL/kg 30-60 minutes before the PTZ administration.
PTZ (120 mg/kg) was administrated subcutaneously before the experiment observation, and this time point was recorded as the observation start point; after the administration of PTZ, the animal was immediately placed in the observation box and observed for 30 minutes, and the followings were recorded: a) the incubation period of the first clonic seizure, b) the incubation period of the first generalized tonic seizure, c) the number of clonic seizures, d) the number of generalized tonic seizures, e) the time when the animal died.
All measurement data were expressed as Mean±SEM, and analysed with Prism 6.0 statistical software.

Row | Compound | hygroscopicity (in words) ([1]; DVS) | Hygroscopicity (25° C./80% RH) ([1]; DVS vapour sorption weight gain at 80% RH, 25° C.) [%] | solubility at 24 h ([2]; FaSSGF (Fasted State Simulated Gastric Fluid), fassgf or other biorelevant, FaSSGF) [µg/mL] | solubility at 24 h ([2]; FaSSIF (Fasted State Simulated Intestinal Fluid), fassif) [µg/mL] | solubility at 24 h ([2]; FeSSIF (Fed State Simulated Intestinal Fluid), fessif) [µg/mL] | solubility compared among the three crystal forms (in words) ([2]; four media) | solubility at 24 h ([2]; pure water, water) [µg/mL] | Incubation period of the clonic seizure (sec) Mean ± SEM (CD-1 mice) [s] | Incubation period of the generalized tonic seizure (sec) Mean (CD-1 mice) [s] | Mortality rate (%) (CD-1 mice) | Number of clonic seizures Mean (CD-1 mice) | Number of generalized tonic seizures Mean (CD-1 mice) | Time when the animal died (sec) Mean (CD-1 mice) [s]
1 | C[C@@H]1C[C@H](C(=O)Cn2ccc(C#N)n2)[C@@]2(C)CC[C@H]3[C@@H](CC[C@@H]4C[C@](C)(O)CC[C@@H]43)[C@H]12 [Crystal form I, 1-(2-((3R,5R,8R,9R,10S,13S,14S,15R,17S)-3-Hydroxy-3,13,15-trimethylhexadecahydro-1H-cyclopenta[a]phenanthren-17-yl)-2-oxoethyl)-1H-pyrazole-3-carbonitrile] | no hygroscopicity | 0.07 | < 1 | 3.26 (≈ 7.7 µM) | 18.2 (≈ 43 µM) | the lowest | < 1 | – | – | – | – | – | –
2 | C[C@@H]1C[C@H](C(=O)Cn2ccc(C#N)n2)[C@@]2(C)CC[C@H]3[C@@H](CC[C@@H]4C[C@](C)(O)CC[C@@H]43)[C@H]12 [Example 40, 1-(2-((3R,5R,8R,9R,10S,13S,14S,15R,17S)-3-Hydroxy-3,13,15-trimethylhexadecahydro-1H-cyclopenta[a]phenanthren-17-yl)-2-oxoethyl)-1H-pyrazole-3-carbonitrile] | – | – | – | – | – | – | – | 1308.1 ± 170.1 | 1800.0 ± 0.0 | 0 | 0.5 ± 0.2 | 0.0 ± 0.0 | 1800.0 ± 0.0
3 | C[C@@]1(O)CC[C@H]2[C@H](CC[C@@H]3[C@@H]2CC[C@@]2(C)[C@H]3[C@@H]3C[C@@H]3[C@@H]2C(=O)Cn2ccc(C#N)n2)C1 [Example 2, 1-(2-((2R,4aS,4bR,6aS,7S,7aS,8aR,8bR,8cR,10aR)-2-Hydroxy-2,6a-dimethyloctadecahydrocyclopropa[4,5]cyclopenta[1,2-a]phenanthren-7-yl)-2-oxoethyl)-1H-pyrazole-3-carbonitrile] | – | – | – | – | – | – | – | 902.9 ± 200.8 | 1736.0 ± 63.2 | 10 | 1.3 ± 0.3 | 0.1 ± 0.1 | 1739.8 ± 60.2
